Reference: patent US20120165319A1, “INHIBITORS OF INTERLEUKIN-1 BETA CONVERTING ENZYME” (VERTEX PHARMACEUTICALS INCORPORATED, priority 1995, published 2012)
Where “and” joins values, the source holds several entries; their conditions need not be identical. Equal values may be shown once. Read-outs that look alike come from different tables or passages of the source.

Columns and labels:
ICE = target: T1, ICE (Homo sapiens, UniProt P29466); experiment: Enzyme assay with UV-visible substrate (visible ICE assay, Succinyl-Tyr-Val-Ala-Asp-pNitroanilide); assay type: biochemical
T1 sequence (P29466 120-297 limits assumed): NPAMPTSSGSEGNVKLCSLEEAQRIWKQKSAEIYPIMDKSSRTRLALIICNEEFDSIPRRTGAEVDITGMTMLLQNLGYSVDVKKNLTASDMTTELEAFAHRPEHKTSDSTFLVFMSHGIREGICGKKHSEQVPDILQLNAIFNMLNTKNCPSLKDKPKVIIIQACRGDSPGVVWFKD
T1 sequence (P29466 317-404 limits assumed): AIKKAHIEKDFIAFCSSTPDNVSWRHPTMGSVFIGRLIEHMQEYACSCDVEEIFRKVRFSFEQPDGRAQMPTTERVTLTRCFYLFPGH
Method in brief: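 Buffer, ICE and inhibitor in DMSO are combined and held 15 min at room temperature. Succinyl-Tyr-Val-Ala-Asp-pNA is then added and absorbance at 405-603 nm tracked for 20 min at 37° C.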

[1] = tested on: IL-1β production, LPS-challenged mice; experiment: In vivo acute assay for efficacy as anti-inflammatory agent: LPS-induced IL-1β production in mice; parameters: species or system mouse; conditions: LPS challenged mice, 50 mg/kg; for Inhibition of IL-1β Production, compound administered 0 hr relative to LPS challenge / Inhibition of IL-1β Production, compound administered +1 hr relative to LPS challenge / Inhibition of IL-1β Production, compound administered −1 hr relative to LPS challenge / Inhibition of IL-1β Production, compound administered −2 hr relative to LPS challenge: PO, * = values obtained in subsequent assays (Table 4); for inhibition at 50 mg/kg: Mus musculus, po, compound PO, read-out: percent inhibition of IL-1β production
Method in brief: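 Serum IL-1β was measured by ELISA 7 h after an IP dose of 20 mg/kg LPS in CD1 mice, n=6 per group. Compounds in olive oil/DMSO/ethanol 90:5:5 were injected IP 1 h post-LPS (some analogs were dosed at challenge), and separate groups received 50 mg/kg by oral gavage.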

[2] = In vivo rat clearance assay; conditions: for clearance: plasma, iv
Method in brief: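 Rats cannulated a day beforehand received 10–20 mg/kg by intravenous jugular dosing in propylene glycol/saline with 100 mM sodium bicarbonate. Carotid blood was sampled from 0 to 90 min, and plasma was extracted with acetonitrile/0.1% TFA for HPLC quantification. Clearance from non-linear regression pharmacokinetic analysis.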

[3] = 0 h, administered 0 h relative to time of LPS challenge
[4] = 1 h, administered +1 h relative to time of LPS challenge
[5] = 1 h, administered −1 h relative to time of LPS challenge
[6] = 2 h, administered −2 h relative to time of LPS challenge

| Structure (SMILES) | Ki (ICE; Table 5) | Inhibition of IL-1β Production, compound administered 0 hr relative to LPS challenge [1] | Inhibition of IL-1β Production, compound administered +1 hr relative to LPS challenge [1] | Inhibition of IL-1β Production, compound administered −1 hr relative to LPS challenge [1] | Inhibition of IL-1β Production, compound administered −2 hr relative to LPS challenge [1] | clearance ([2]; 10-20 mg/kg) | further results |
| --- | --- | --- | --- | --- | --- | --- | --- |
| COC(=O)C[C@H](NC(=O)[C@@H]1CCCN2C(=O)CC[C@H](NC(=O)c3ccccc3)C(=O)N12)C(OC)OC [Compound 2100c] | 7400 nM | 85% | 40% | 0% | 0% | – | – |
| O=C(O)C[C@H](NC(=O)[C@@H]1CCCN2C(=O)CC[C@H](NC(=O)c3ccccc3)C(=O)N12)C(=O)CSc1nnnn1-c1ccccc1 [Compound 280, [3S(1S,9S)]3-(9-Benzoylamino-6,10-dioxo-1,2,3,4,7,8,9,10-octahydro-6H-pyridazino[1,2-a][1,2]diazepine-1-carboxamido)-4-oxo-5(1-phenyl-1H-tetrazole-5-thio)pentanoic acid] | – | – | – | – | – | 187 mL/min/kg | – |
| CC(C)C(=O)Nc1ccc(C(=O)N[C@H]2CCC(=O)N3CCC[C@@H](C(=O)N[C@H](C=O)CC(=O)O)N3C2=O)cc1 [Compound 484] | 2 nM | – | – | – | – | 15 mL/min/kg | – |
| O=C[C@H](CC(=O)O)NC(=O)[C@@H]1CCCN2C(=O)CC[C@H](NC(=O)c3nccc4ccccc34)C(=O)N12 [Compound 412, [3S(1S,9S)]3-[6,10-Dioxo-9-(isoquinolin-1-oylamino)-1,2,3,4,7,8,9,10-octahydro-6H-pyridazino[1,2-a][1,2]diazepine-1-carboxamido]-4-oxobutanoic acid] | 1.3 nM | – | – | – | – | 25 mL/min/kg | – |
| O=C[C@H](CC(=O)O)NC(=O)[C@@H]1CCCN2C(=O)CCN(NS(=O)(=O)c3ccccc3)C(=O)N12 [Compound 1027, [3S(4S)]3-(6,10-Dioxo-1,2,3,4,7,8,9,10-octahydro-7-phenylsulphonylamino-6H-pyridazino[1,2-a][1,2,4]triazepine-4-carboxamido)-4-oxobutanoic acid] | 4000 nM | – | – | – | – | 60 mL/min/kg | – |
| O=C[C@H](CC(=O)O)NC(=O)[C@@H]1CCCN2C(=O)CCN(NC(=O)c3cc4ccccc4s3)C(=O)N12 [Compound 1053, [3S(4S)]3-[7-(Benzo[b]thiophene-2-carbonyl)amino-6,10-dioxo-1,2,3,4,7,8,9,10-octahydro-6H-pyridazino[1,2-a][1,2,4]triazepine-4-carboxamido]-4-oxobutanoic acid] | – | – | – | – | – | – | Ki (ICE; Table 17): 27 nM; clearance ([2]; Table 17): 34 mL/min/kg |
| CC(C)OC(=O)C[C@H](NC(=O)[C@@H]1CCCN2C(=O)CC[C@H](NC(=O)c3ccccc3)C(=O)N12)C(OC(C)C)OC(C)C [Compound 2100d] | > 100000 nM | 52% | 26% | 35% | 42% | – | – |
| O=C[C@H](CC(=O)O)NC(=O)[C@@H]1CCCN2C(=O)CC[C@H](NC(=O)c3cccc(Cl)c3)C(=O)N12 [Compound 455] | 1.2 nM | – | – | – | – | 54 mL/min/kg | – |
| O=C1C[C@H](NC(=O)[C@@H]2CCCN3C(=O)CC[C@H](NC(=O)C(=O)c4ccccc4)C(=O)N23)C(OCc2ccccc2)O1 (stereo partly drawn) [Compound 2001, [1S,9S(2RS,3S)]9-Benzoylformylamino-6,10-dioxo-1,2,3,4,7,8,9,10-octahydro-N-(2(R,S)-benzyloxy-5-oxotetrahydrofuran-3-yl)-6H-pyridazino[1,2-a][1,2]-diazepine-1-carboxamide] | 135 nM | ~57% and 58* % | ~54% and 55* % | ~62% and 62* % | ~63% and 64* % | – | inhibition at 50 mg/kg [1, 3]: 58%; inhibition at 50 mg/kg [1, 4]: 55%; inhibition at 50 mg/kg [1, 5]: 62%; inhibition at 50 mg/kg [1, 6]: 64% |
| O=C(O)C[C@H](NC(=O)[C@@H]1CCCN2C(=O)CC[C@H](NC(=O)c3ccccc3)C(=O)N12)C(=O)COc1cccnc1 [Compound 283, [3S(1S,9S)]3-[9-Benzoylamino-6,10-dioxo-1,2,3,4,7,8,9,10-octahydro-6H-pyridazino[1,2-a][1,2]diazepine-1-carboxamido]-4-oxo-5-(3-pyridyloxy)pentanoic acid] | – | – | – | – | – | 104 mL/min/kg | – |
| CCOC1OC(=O)C[C@@H]1NC(=O)[C@@H]1CCCN2C(=O)CC[C@H](NC(=O)c3ccccc3)C(=O)N12 (stereo partly drawn) [Compound 2100e, [1S,9S(2RS,3S)]9-Benzoylamino-6,10-dioxo-1,2,3,4,7,8,9,10-octahydro-N-(2-ethoxy-5-oxo-tetrahydro-furan-3-yl)-6H-pyridazino[1,2-a][1,2]-diazepine-1-carboxamide] | 250 nM | 94% | 66% | 54% | 49% | – | – |
| O=C1C[C@H](NC(=O)[C@@H]2CCCN3C(=O)CC[C@H](NC(=O)c4ccccc4)C(=O)N23)C(OCCc2ccccc2)O1 (mixture of isomers) [Compound 2100k, [1S,9S(2RS,3S)]9-Benzoylamino-6,10-dioxo-1,2,3,4,7,8,9,10-octahydro-N-(2-phenethyloxy-5-oxotetrahydrofuran-3-yl)-6H-pyridazino[1,2-a][1,2]diazepine-1-carboxamide] | – | – | – | – | – | – | Ki (ICE; Table 17): 520 nM; inhibition at 50 mg/kg [1, 3]: 32%; inhibition at 50 mg/kg [1, 4]: 72%; inhibition at 50 mg/kg [1, 5]: 50%; inhibition at 50 mg/kg [1, 6]: 30% |
| O=C1C[C@H](NC(=O)[C@@H]2CCCN3C(=O)CC[C@H](NC(=O)c4ccccc4)C(=O)N23)C(OCc2ccccc2)O1 (stereo partly drawn) [Compound 213e, [1S,9S(2RS,3S)]9-Benzoylamino-6,10-dioxo-1,2,3,4,7,8,9,10-octahydro-N-(2-benzyloxy-5-oxotetrahydrofuran-3-yl)-6H-pyridazino[1,2-a][1,2]-diazepine-1-carboxamide] | 130 nM | 41% | 89% | 48% | 0% | – | – |
| CS(=O)(=O)N[C@H]1CCC(=O)N2CCC[C@@H](C(=O)N[C@@H](CC(=O)O)C(=O)COC(=O)c3cccc4ccccc34)N2C1=O [Compound 286, [3S(1S,9S)]3-(6,10-Dioxo-9-methanesulphonylamino-1,2,3,4,7,8,9,10-octahydro-6H-pyridazino[1,2-a][1,2]diazepine-1-carboxamido)-5-(1-naphthoyloxy)-4-oxopentanoic acid] | – | – | – | – | – | – | Clearance Rat, i.v. ([2]; Table 18): 119 mL/min/kg |
| CC(C)(C)OC(=O)C[C@@H](C=O)NC(=O)[C@@H]1CCCN2C(=O)CC[C@H](NC(=O)c3ccccc3)C(=O)N12 [Compound 302, [3S(1S,9S)3-(9-Benzoylamino-6,10-dioxo-1,2,3,4,7,8,9,10-octahydro-6H-pyriazino-[1,2-a][1,2]diazapine-1-carboxamido)-amino]-4-oxobutanoic acid tert-butyl ester] | 4500 nM | 21% | 26% | 27% | 0% | – | – |
| CC(C)OC1OC(=O)C[C@@H]1NC(=O)[C@@H]1CCCN2C(=O)CC[C@H](NC(=O)c3ccccc3)C(=O)N12 (stereo partly drawn) [Compound 2100a, [1S,9S(2RS,3S)]9-Benzoylamino-6,10-dioxo-1,2,3,4,7,8,9,10-octahydro-N-(2-isopropoxy-5-oxo-tetrahydro-furan-3-yl)-6H-pyridazino-[1,2-a][1,2]diazepine-1-carboxamide] | 100 nM | 67% | 58% | 71% | 8% | – | – |
| CCOC(=O)C[C@H](NC(=O)[C@@H]1CCCN2C(=O)CC[C@H](NC(=O)c3ccccc3)C(=O)N12)C(OCC)OCC [Compound 2100b] | 8000 nM | 47% | 26% | 0% | 0% | – | – |
